Measurements from EP3381909A1, “NEW TRIAZINE SUBSTANCE FOR USE IN THE TREATMENT OF CANCER, SPECIFICALLY IN THE TREATMENT OF NON-SMALL CELL CANCER, AND PHARMACEUTICAL COMPOSITION COMPRISING SAID SUBSTANCE” (Universite de Nantes, priority 2017, dated 2018).
Read-outs that look alike come from different tables or passages of the source.

Columns and labels:
mutant p53, NEDD9 gene = details: Rousseau et al., Sci. Rep. 5, 10556, 2015; cited from earlier work
[1] = tested on: A549 cells synchronised in M phase; details: after 17 hours of treatment, previous work; cited from earlier work
NSCLC-N6-L16 [2] = assay: Cytotoxicity determination, continuous drug exposure (MTT colorimetric assay); type: cell-based; details: Homo sapiens, read-out: IC50: Half maximal inhibitory concentration
Procedure: (§1) A549 and NSCLC-N6 cell lines were used for all experiments. They were obtained respectively from an adenocarcinoma and an epidermoid lung cancer. The NSCLC-N6-L16 cell line was derived from a human non-small-cell bronchopulmonary carcinoma (moderately differentiated, classified as T2N0M0). The A549 was obtained from the ATCC collection (reference CCL-185) and is known to have a wild type p53 gene, while NSCLC-N6 has a mutant p53 gene, similar to the in situ tumors.
(§2) Both cell lines were cultured in RPMI-1640 medium with 5% fetal bovine serum, to which were added 100 IU penicillin/ml, 100 µg/mL streptomycin and 2 mM glutamine at 37°C in an air/carbon dioxide (95:5, v/v) atmosphere. The NSCLC-N6-L16 cell line is a model which never exceeded 35 passages in all experiments. Then this model stays very close to the original tumor.
(§3) Experiments were performed in 96-well microtiter plates (10^5 cells/mL for NSCLC-N6-L16 and 2X10^4 cells/mL for A549). Cell growth was estimated by a colorimetric assay based on the conservation of tetrazolium dye (MTT) to a blue formazan product by live mitochondria. Eight repeats were performed for each concentration. Control growth was estimated from 8 determinations. Optical density at 570 nm corresponding to solubilized formazan was read for each well on a Titertek Multiskan MKII.

A549 [3] = assay: as above; type: cell-based; details: for IC50: Homo sapiens, A549 cell line, MTT, read-out: IC50: Half maximal inhibitory concentration
Procedure: as §1, §2, §3

NSCLC-N6-L16 [4] = assay: Continuous drug exposure growth kinetics over 72 h; type: cell-based, human; details: for "plateau" of cytostatic type, time of treatment after which it is visible: NSCLC-N6-L16, highest doses, A190: 104.9 µM, 78.9 µM, A204: 8.4 µM, 5.6 µM
Procedure: as §3
(§4) The kinetics were carried out on the two cell lines NSCLC-N6-L16 and A549 over a time of 72 h. The results are presented in the graphs of figures 1 to 4 representing the cell growth as a function of time. One of the curves represents the cell growth control; the others correspond to the different concentrations tested. The latter are chosen according to the IC50 in order to surround it at best (Table 3).

A549 [5] = assay: Continuous drug exposure growth kinetics over 72 h; type: cell-based; details: for cell growth (proliferation) versus time: A549, 72 h kinetics
Procedure: as §3, §4

[6] = tested on: A549 cells synchronised in M phase; assay: Gene expression by quantitative real-time RT-PCR in cells synchronised in M phase; type: cell-based; details: A549, at 17 hours; treated at the IC50 (figure legend: 39.4µM)
Source text: (§5) During the mitosis, cell shape and adhesion are radically changed. Indeed, this phase induces a depolymerization of the microtubules, a loss of the cytoskeleton and consequently a decrease of the adhesion to the support. […] It is thus easy to isolate these cells by a slight agitation of the culture medium in order to remove and suspend the cells. The cells are then recovered by slow centrifugation and replaced in a new culture flask.
(§6) Total RNA was extracted from NSCLC-N6-L16 and A549 cell lines using the Dynabeads® mRNA DirectTM Kit (Ambion by Life Technologies). The isolation protocol relies on base pairing between the polyA residues at the 3' end of most mRNA and the oligo (dT) residues covalently coupled to the surface of the Dynabeads®. The quality and concentration of purified RNA were assessed using UV absorbance at 260/280 nm and samples were run on 1% agarose gel in order to assess their quality. RNA was stored at - 80 °C.
RT was carried out with 1 µg of RNA in 10 µL with 0.125 µg/µL random primers and RNase-free water. This mixture was denatured at 65°C for 10 min then kept on ice. Subsequently, it was completed to a final volume of 25 µL with a mix containing 8 mM of dNTP mix, 1X of M- MLV 5X reaction buffer, 25 units of recombinant RNasin ribonuclease inhibitor (Promega), and 200 units of M-MLV RT (Promega) and RNase-free water. […]

[7] = tested on: NSCLC-N6-L16 cells synchronised in M phase; assay: as above; type: cell-based, human
Source text: as §5, §6
RT was carried out with 1 µg of RNA in 10 µL with 0.125 µg/µL random primers and RNase-free water. This mixture was denatured at 65°C for 10 min then kept on ice. Subsequently, it was completed to a final volume of 25 µL with a mix containing 8 mM of dNTP mix, 1X of M- MLV 5X reaction buffer, 25 units of recombinant RNasin ribonuclease inhibitor (Promega), and 200 units of M-MLV RT (Promega) and RNase-free water. In order to check whether the samples were contaminated by genomic DNA, the same mix was made with RNA without the reverse transcriptase. Following this step, samples were incubated for 2 h at 37°C. cDNAs were stored at -20°C. After reverse transcription, cDNAs were used as a template for specific qPCR.
Real-time RT-PCR was carried out in a final volume of 25 µL with 1µL 1:20 dilution of diluted cDNA mixture, 10 pmol gene-specific forward and 10 pmol reverse primer in 1X SYBR Green PCR master mix (Eurogentec) with the following protocol: 15 s at 95 °C for denaturation, 30 s at 60°C for annealing and extension on a ABI Prism Sequence Detection System 5700 (Applied Biosystems). The primers were designed using Primer 3 (http://frodo.wi.mit.edu/). All primer sequences were controlled with a dimers finder to reduce the risk of unspecific hybridization of Sybr-green (Operon oligo toolkit: see https://www.operon.com(oligos/toolkit.php).
The relative expression of each gene was normalized to that of human β-actin: forward 5'-[…]-3' (SEQ ID NO: 13), reverse 5'-[…]-3' (SEQ ID NO: 14) (10 mM, Sigma Genosys). Normalization was carried out using the ΔΔCt method. Non-template control sample was used for each PCR to check the genomic DNA contaminations of the cDNA template. Analysis of the results was carried out using GenAmp 5700 SDS (Applied Biosystems) software.
The expression of four genes of interests were studied in the cell line NSCLC-N6-L16: HEF1, p53, C3G and FAK. It was carried out by RT-QPCR on the synchronized cells not treated (dark histograms) or treated (grey histograms) by A240 at the IC50. The study was performed between 10 and 17 hours in order to follow the gene expression with an extraction every hour.

synchronized cells = assay: Activity kinetics on synchronized cells (data not shown); type: cell-based
Source text: as §5
It was observed that the cell doubling time of the cell line NSCLC-N6-L16 is about 17 hours and 22-23 hours for A549. Indeed, the molecule A204 act on different genes such as HEF1, the expression of which is variable along the cell cycle.

NC1=NC(C23CC4CC(CC(C4)C2)C3)N(c2ccc(Cl)cc2)C(N)=N1 (centres unmarked) [A190]
expression of the NEDD9 gene (mutant p53, NEDD9 gene): overexpression
mutant p53 activity (mutant p53, NEDD9 gene): restores mutant p53 activity
expression of gene AKT [1]: overexpression
expression of gene PI3K [1]: overexpression
IC50 (NSCLC-N6-L16 [2]): 24.1 ± 2.2 µM
IC50 (A549 [3]): 71 ± 1.2 µM
cell growth (proliferation) versus time (NSCLC-N6-L16 [4]; NSCLC-N6-L16, 72 h kinetics): reduced for both cell lines in a dose-dependent manner
cytostatic activity since (concentration) (NSCLC-N6-L16 [4]; NSCLC-N6-L16, continuous exposure): ≥ 26.3 µM
"plateau" of cytostatic type, time of treatment after which it is visible (NSCLC-N6-L16 [4]): > 48 h
cell growth (proliferation) versus time (A549 [5]): reduced for both cell lines in a dose-dependent manner
cytostatic activity since (concentration) (A549 [5]; A549, continuous exposure): ≥ 26.3 µM
plateau of cytostatic type, time of treatment after which it is visible (A549 [5]; A549, A190 at 104.9, 78.9, 52.6, 26 µM): > 48 h

NC1=NC(C23CC4CC(CC(C4)C2)C3)N(Cc2ccc(Cl)cc2)C(N)=N1 (centres unmarked) [A204, 4,6-diamino-1,2-dihydro-1-(4"-chlorobenzyl)-2-(1-tricyclo [3.3.1.1,4]decyl)-1,3,5-triazine]
expression of gene AKT [6]: overexpression
expression of gene PI3K [6]: overexpression
expression of gene P53 ([7]; 10 to 17 hours, treated vs control): clearly shows an influence of the treatment on the expression
time of action compared with A190 ([7]; NSCLC-N6-L16, same cytostatic effect, relative to A190): three hours earlier
expression of gene C3G ([7]; at 17 hours (G2 / M phase)): collapse
expression of gene HEF1 ([7]; at around 12 hours, treated at the IC50 (figure legend: 39.4µM) vs control): highly overexpressed
expression of gene C3G ([7]; between 11 and 13 hours (end of G1 phase)): widely overexpressed
expression of gene FAK ([7]; between 12 and 16 hours (phase of synthesis)): decreased expression
expression of gene HEF1 ([7]; between 13 and 15 hours): collapses
expression of gene C3G ([7]; between 13 and 16h): goes up gradually
expression of gene HEF1 ([7]; between 15 and 17 hours (G2 / M phase)): relatively close to the level of the control cells
IC50 (NSCLC-N6-L16 [2]): 5.01 ± 0.5 µM
IC50 / amount required compared with A190 (A549 [3]; A549, relative to A190): seven times less
IC50 (A549 [3]): 9.7 ± 0.7 µM
"plateau" of cytostatic type, time of treatment after which it is visible (NSCLC-N6-L16 [4]): > 48 h
time at which the effect of the treatment is beginning (synchronized cells): around 30 hours
cell growth (proliferation) versus time (A549 [5]): follow perfectly that of the control cells
